Source: patent publication US20050031717A1, “Salt taste modification” (priority 2003, published 2005)
“Also recorded” adds a separate entry of the source.

Experiments:
[1] = test system: amiloride-insensitive salt taste receptor
[2] = test system: amiloride-insensitive salt taste receptor; experiment: Rat chorda tympani (CT) taste nerve recordings; assay type: in vivo; conditions: for effect on RTX-enhanced NaCl chorda tympani response: 100 mM NaCl+5 μM benzamil+0.75 μM RTX, capsazepine 0-500 μM; for effect on NaCl chorda tympani response: no Bz
Excerpt: Chorda tympani nerve recordings. Recordings from the chorda tympani (CT) taste nerves of anesthetized rats were made. Recordings were made with various salt stimuli and with the taste receptive field under current or voltage clamp in order to observe the effect, if any, of modulating the driving force for ions through putative […] apical membrane ion channels involved in salt taste reception.

[3] = test system: amiloride-insensitive salt taste receptor; experiment: Chorda tympani responses in wildtype C57BL/6J mice; assay type: in vivo, mouse
[4] = test system: polarized rat fungiform taste receptor cells; experiment: [Na+]i measurement (Na-green F490) in polarized taste receptor cells, unilateral apical Na+ flux; assay type: cell-based
Excerpt: [Na^+]i measurement in polarized taste receptor cells. A small piece of the anterior lingual epithelium containing a single fungiform papilla was mounted in a special microscopy chamber (Lyall et al., 2002, supra). Relative changes in intracellular sodium activity ([Na^+]i) were monitored in polarized taste receptor cells with the sodium sensitive fluoroprobe sodium-green. The taste receptor cells in the taste bud were visualized from the basolateral side through a 40× objective using a fluorescence microscope.

[5] = fixed RTX concentration (0.75 μM), 100 mM NaCl+5 μM Bz

## CCO [ethanol]
[1]; VR1 KO mice, 10 mM KCl+60% ETH
  CT response to R+60% ETH: no CT response
[1]; VR1 KO mice, 60% ETH
  effect on the NaCl CT response or the Bz-insensitive NaCl CT response: no effect
[2]; 10 mM KCl+0.5 μM RTX, 40% ETH or 60% ETH, 23°
  effect on CT response in the presence of RTX: increased the CT response in a dose dependent manner
[2]; 10 mM KCl+20% ETH at 42°
  CT response profile: phasic response followed by a sustained tonic phase
[2]; 10 mM KCl+20% ETH+0.5 μM RTX
  enhancement of the magnitude of the tonic component at 42° relative to 23°: 50%
[2]; 10 mM KCl+20% ETH+0.5 μM RTX at 23°
  CT response profile: both a phasic component and a sustained tonic component
[2]; 10 mM KCl+20% ETH, 23°
  CT response profile: only a transient phasic response
[2]; 10 mM KCl+20% ETH, 23°, listed as ETH
  CT response profile: did not increase the CT response above baseline
[2]; 10 mM KCl+30% ETH
  CT response profile: only a transient phasic response
[2]; 10 mM KCl+40% ETH
  magnitude of CT response at 42° relative to 23°: enhanced
[2]; 10 mM KCl+40% ETH, 23°, listed as ETH
  CT response profile: transient phasic response that was followed by a sustained tonic response; also recorded: both a phasic and a tonic component
[2]; 10 mM KCl+50% ETH and 10 mM KCl+60% ETH
  CT response profile: both phasic and tonic components
[2]; 10 mM KCl+60% ETH
  temperature producing a sharp increase in the KCl CT response: 380
[2]; 10 mM KCl+60% ETH, 23° to 55.5°
  temperature of maximum enhancement of the KCl CT response: 41 °
[2]; 100 mM NaCl+5 mM Bz+60% ethanol
  effect on magnitude of the Bz-insensitive NaCl CT response: decreased
[2]; 100 mM NaCl+5 mM Bz+ETH, 20% to 40% ethanol
  effect on magnitude of the Bz-insensitive NaCl CT response: dose-dependent increase
[2]; 80% ethanol, H2O rinse
  effect of 42° on CT response to ethanol relative to 23°: no effect
[2]; KCl and NaCl
  ethanol concentration that inhibited CT responses: > 60%
[2]; ethanol 40%-100% in distilled H2O, 23°
  CT response to ethanol alone: only a transient phasic component
[3]; WT mice, 10 mM KCl+60% ETH
  CT response relative to 10 mM KCl: greater CT response
[3]; WT mice, 100 mM NaCl+5 μM Bz+60% ETH
  effect on Bz-insensitive NaCl CT response: inhibited the CT response
[4]; 150 NaCl+5 mM Bz+10% ethanol
  increase in F490 relative to zero ethanol: bigger increase
[4]; 150 NaCl+5 mM Bz+40% ethanol
  increase in F490 relative to 10% ethanol: further increase
[4]; Na+-free Ringer's solution, 10% or 40% ethanol
  change in F490 relative to zero ethanol: no changes

## Oc1cc2c(cc1O)CN(C(=S)NCCc1ccc(Cl)cc1)CCC2 [capsazepine]
[2]
  effect on RTX-enhanced NaCl chorda tympani response: monotonically reduced
[2]; listed as CZP
  effect on RTX-enhanced NaCl chorda tympani response: dose-dependent inhibition
[2]; CZP 10 μM, RTX 0-10 μM
  effect on RTX concentration response curve of the Bz-insensitive NaCl chorda tympani response: shifted the RTX concentration response curve to the right
[2]; [5]
  CZP concentration at which chorda tympani responses decreased to the level with NaCl alone: 100 µM
  CZP concentration at which the chorda tympani response was below the level with NaCl alone: ≥ 250 µM
[4]; 150 mM NaCl+5 mM Bz+40% ETH+100 mM CZP
  increase in F490 relative to 150 mM NaCl+5 mM Bz+40% ETH: significantly smaller increase

## COc1cc(CNC(=S)CC(COC(=O)C(C)(C)C)Cc2ccc(C)c(C)c2)ccc1O (centres unmarked) [Agonist 23, 2-(3,4-dimethylbenzyl)-3-{[(4-hydroxy-3-methoxybenzyl)amino]carbothioyl}propyl pivalate]
[2]; 100 mM NaCl+5 μM benzamil
  effect on CT response at higher concentrations: decrease
  effect on CT response at low concentration: enhances
[2]; 41° versus 23°
  temperature dependence of effectiveness: more effective at 41°

## NC(=NCc1ccccc1)NC(=O)c1nc(Cl)c(N)nc1N [Bz, benzamil]
[3]; wildtype mice, 23°, 100 mM NaCl+5 μM Bz
  part of the NaCl chorda tympani response that was Bz-insensitive: about 25%

## COc1cccc(NC(=O)C=Cc2ccc(Cl)cc2)c1 [SB-366791, N-(3-methoxyphenol)-4-chlorocinnamide]
[2]; 1 μM SB-366791, 100 mM NaCl+5 μM Bz
  effect on Bz-insensitive NaCl chorda tympani response at 23° and elevated temperatures: completely blocked
[2]; RTX+ETH+0.1 μM SB-366791, 23° and 42°
  effect on CT response to RTX+ETH: completely inhibited the tonic component
[2]; ethanol solutions containing 0.1 mM SB-366791
  effect on transient phasic responses to ethanol: did not affect
[4]; 150 mM NaCl+
  increase in F490 on increase of apical Na+ concentration: completely inhibited; also recorded: no increase
[4]; 150 mM NaCl++40% ETH
  increase in F490 above baseline with ethanol: no further increase

## Evodiamine
[2]; 100 μM evodiamine in 10 mM KCl
  effect on chorda tympani response in rinse solution: no effect
[2]; 100 mM NaCl+5 μM Bz
  concentration at which enhancement of the Bz-insensitive NaCl chorda tympani response begins: 30 µM
  concentration of maximum enhancement of the Bz-insensitive NaCl chorda tympani response: 300 µM
[2]; 100 mM NaCl+5 μM benzamil
  concentration at which the response is the same as the control response: 3 mM
  effect on chorda tympani response at concentrations higher than 3 mM: inhibited

## COc1cc(CNC(=O)CCCC/C=C/C(C)C)ccc1O [capsaicin]
[2]; 100 mM KCl, 100 mM NH4Cl, 200 μM capsaicin
  chorda tympani response to KCl and NH4Cl at high capsaicin: a residual response remained
[2]; 100 mM NaCl+5 μM Bz
  concentration at which the Bz-insensitive NaCl chorda tympani response decreased to rinse level (eliminated): 200 µM
  concentration of maximum enhancement of the Bz-insensitive NaCl chorda tympani response: 40 µM
  rank order potency on the Bz-insensitive NaCl chorda tympani response: RTX>CAP>CPC
[2]; 100 mM NaCl+5 μM Bz, listed as CAP
  concentration of maximum enhancement of the Bz-insensitive NaCl chorda tympani response: around 40 μM

## C=C(C)[C@]12C[C@@H](C)[C@@]34O[C@](Cc5ccccc5)(O[C@@H]1[C@@H]3C=C(COC(=O)Cc1ccc(O)c(OC)c1)C[C@]1(O)C(=O)C(C)=C[C@@H]41)O2 [RTX, resiniferatoxin]
[1]; VR1 knockout mice, 0.75 μM RTX, 23° and 42°
  effect on response to NaCl+Bz: No effects
[2]; 10 mM KCl+0.5 μM RTX at 23°, no ethanol
  CT response profile: only a transient phasic response
[2]; 10 mM KCl+40% ETH+0.5 μM RTX, 23° and 42°
  effect of RTX on the CT response to ethanol: enhanced the response
[2]; 10 mM KCl+60% ETH+0.5 μM RTX
  effect on temperature threshold of the KCl CT response: without affecting the temperature threshold
[2]; 100 mM NaCl+1 μM RTX
  effect on NaCl chorda tympani response: reversibly increased
[2]; 100 mM NaCl+5 μM Bz
  concentration at which enhancement of the Bz-insensitive NaCl chorda tympani response begins: 0.1 µM
  concentration at which the Bz-insensitive NaCl chorda tympani response decreased to rinse level (eliminated): around 10 μM
  concentration at which the NaCl response returned to control level: around 3 μM
  concentration of maximum enhancement of the Bz-insensitive NaCl chorda tympani response: 1 µM
  rank order potency on the Bz-insensitive NaCl chorda tympani response: RTX>CAP>CPC
[2]; 100 mM NaCl+5 μM Bz+0.5 μM RTX, pHo 2-10
  pH of greatest RTX-induced increase in the Bz-insensitive NaCl chorda tympani response: 6
[2]; 100 mM NaCl+5 μM Bz+1 μM RTX
  effect on Bz-insensitive NaCl chorda tympani response: same magnitude of enhancement
[2]; 100 mM NaCl+10 μM RTX
  effect on NaCl chorda tympani response: reversibly decreased
[2]; NaCl+5 μM Bz+10 μM RTX
  effect on Bz-insensitive NaCl chorda tympani response: reduced the response (j-k) to rinse level
[2]; rat, in vivo
  effect on the CT responses to sucrose, quinine or H+ ions: no effect
[3]; wildtype mice, 23°, 100 mM NaCl+5 μM Bz+0.75 μM RTX
  effect on Bz-insensitive NaCl chorda tympani response: enhanced
[3]; wildtype mice, 42°, 100 mM NaCl+5 μM Bz+0.75 μM RTX
  response to RTX at 42°: significantly enhanced relative to 23°

## Nc1ncnc2c1ncn2[C@@H]1O[C@H](COP(=O)(O)OP(=O)(O)OP(=O)(O)O)[C@@H](O)[C@H]1O [ATP, Adenosine 5′-triphosphate]
[2]; 100 μM evodiamine+500 μM ATP, 100 mM NaCl+5 μM benzamil
  effect on chorda tympani response compared to 100 mM NaCl+5 μM benzamil+100 μM evodiamine: further enhancement
[2]; ATP 500 μM alone
  effect on the temperature threshold of the Bz-insensitive NaCl chorda tympani response: no effect
